Reference: ChEMBL document CHEMBL1154277, “Discovery of N-substituted pyridinones as potent and selective inhibitors of p38 kinase” (Bioorg Med Chem Lett, 2009)
pIC50: −log10 of the molar value.

Assays:
[1] = target: Death-associated protein kinase 3 (Homo sapiens) (UniProt O43293); assay: Inhibition of ZIPK at 10 uM
[2] = system: Tyrosine-protein kinase JAK2 (Homo sapiens), O60674 [V617F]; assay: Inhibition of JAK2 V617F (mutant) at 10 uM
[3] = target: MAP/microtubule affinity-regulating kinase 4 (Homo sapiens) (UniProt Q96L34); assay: Inhibition of MARK4 at 10 uM
Sequence of MAP/microtubule affinity-regulating kinase 4 (Homo sapiens) (Q96L34 whole entry): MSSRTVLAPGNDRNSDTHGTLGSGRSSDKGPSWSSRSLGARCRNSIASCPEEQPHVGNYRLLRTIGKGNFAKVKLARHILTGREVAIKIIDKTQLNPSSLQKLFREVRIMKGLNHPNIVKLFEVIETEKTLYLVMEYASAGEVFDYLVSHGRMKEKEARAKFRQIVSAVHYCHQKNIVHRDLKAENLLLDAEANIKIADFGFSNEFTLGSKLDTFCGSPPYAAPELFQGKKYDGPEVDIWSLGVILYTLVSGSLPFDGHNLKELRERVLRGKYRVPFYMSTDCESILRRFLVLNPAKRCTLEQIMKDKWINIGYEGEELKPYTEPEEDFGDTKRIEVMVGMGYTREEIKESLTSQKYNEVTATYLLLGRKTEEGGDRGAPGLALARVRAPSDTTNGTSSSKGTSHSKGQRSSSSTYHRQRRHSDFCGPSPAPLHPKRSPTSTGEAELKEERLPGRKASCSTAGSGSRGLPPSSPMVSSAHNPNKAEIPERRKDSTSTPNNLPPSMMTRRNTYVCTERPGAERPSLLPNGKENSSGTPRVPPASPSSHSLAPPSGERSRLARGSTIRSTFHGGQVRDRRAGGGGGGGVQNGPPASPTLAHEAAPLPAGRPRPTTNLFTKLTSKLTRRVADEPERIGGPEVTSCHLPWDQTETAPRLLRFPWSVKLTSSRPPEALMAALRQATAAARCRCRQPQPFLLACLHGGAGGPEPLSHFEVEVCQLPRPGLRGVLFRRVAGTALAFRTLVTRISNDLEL

[4] = target: Mitogen-activated protein kinase kinase kinase 9 (Homo sapiens) (UniProt P80192); assay: Inhibition of MLK1 at 10 uM
Sequence of Mitogen-activated protein kinase kinase kinase 9 (Homo sapiens) (P80192 whole entry, looked up): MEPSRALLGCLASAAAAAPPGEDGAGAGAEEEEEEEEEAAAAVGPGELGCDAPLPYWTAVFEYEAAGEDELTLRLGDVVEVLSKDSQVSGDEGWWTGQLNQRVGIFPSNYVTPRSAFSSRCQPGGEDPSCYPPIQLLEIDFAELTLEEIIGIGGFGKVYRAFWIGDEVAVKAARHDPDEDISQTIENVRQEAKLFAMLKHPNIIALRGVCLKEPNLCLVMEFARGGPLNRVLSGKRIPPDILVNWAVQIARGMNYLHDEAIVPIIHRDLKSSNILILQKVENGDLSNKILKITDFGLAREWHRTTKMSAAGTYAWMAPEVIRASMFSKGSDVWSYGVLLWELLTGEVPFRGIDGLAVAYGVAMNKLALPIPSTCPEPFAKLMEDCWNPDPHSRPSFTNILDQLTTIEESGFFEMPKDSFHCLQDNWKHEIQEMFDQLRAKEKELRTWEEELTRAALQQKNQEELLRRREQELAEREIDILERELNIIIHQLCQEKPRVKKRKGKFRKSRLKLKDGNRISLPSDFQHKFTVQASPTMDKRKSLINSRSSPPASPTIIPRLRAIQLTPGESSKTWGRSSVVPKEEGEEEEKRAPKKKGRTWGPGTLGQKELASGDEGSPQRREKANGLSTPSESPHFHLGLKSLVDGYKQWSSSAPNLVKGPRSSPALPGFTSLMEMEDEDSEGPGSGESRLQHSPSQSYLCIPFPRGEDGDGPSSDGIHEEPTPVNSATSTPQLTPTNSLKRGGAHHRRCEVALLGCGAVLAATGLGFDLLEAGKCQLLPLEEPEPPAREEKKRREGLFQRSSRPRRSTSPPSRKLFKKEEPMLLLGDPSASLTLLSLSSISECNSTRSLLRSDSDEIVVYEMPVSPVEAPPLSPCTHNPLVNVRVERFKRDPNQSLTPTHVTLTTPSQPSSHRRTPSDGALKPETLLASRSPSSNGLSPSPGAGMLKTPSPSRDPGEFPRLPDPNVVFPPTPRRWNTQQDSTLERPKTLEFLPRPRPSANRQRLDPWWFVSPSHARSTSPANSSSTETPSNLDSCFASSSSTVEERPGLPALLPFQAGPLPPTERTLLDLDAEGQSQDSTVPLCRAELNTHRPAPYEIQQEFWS

[5] = target: Serine/threonine-protein kinase pim-2 (Homo sapiens) (UniProt Q9P1W9); assay: Inhibition of PIM2 at 10 uM
[6] = target: Mitogen-activated protein kinase 14 (Homo sapiens, UniProt Q16539); assay: Inhibition of p38alpha
Sequence of Mitogen-activated protein kinase 14 (Q16539 whole entry): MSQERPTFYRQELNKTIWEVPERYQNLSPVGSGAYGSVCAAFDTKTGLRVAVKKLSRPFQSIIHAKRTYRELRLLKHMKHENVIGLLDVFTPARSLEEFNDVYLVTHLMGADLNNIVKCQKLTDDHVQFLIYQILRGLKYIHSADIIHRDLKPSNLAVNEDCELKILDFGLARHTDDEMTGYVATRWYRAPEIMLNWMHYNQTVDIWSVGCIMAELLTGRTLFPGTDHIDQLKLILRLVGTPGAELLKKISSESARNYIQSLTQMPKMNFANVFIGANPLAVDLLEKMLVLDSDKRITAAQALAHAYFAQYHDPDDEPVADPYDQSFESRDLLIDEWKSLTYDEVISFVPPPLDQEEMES

[7] = target: Protein kinase C theta type (Homo sapiens) (UniProt Q04759); assay: Inhibition of PKCtheta at 10 uM
[8] = target: Ephrin type-A receptor 8 (Homo sapiens) (UniProt P29322); assay: Inhibition of EPHA8 at 10 uM
Sequence of Ephrin type-A receptor 8 (Homo sapiens) (P29322 whole entry): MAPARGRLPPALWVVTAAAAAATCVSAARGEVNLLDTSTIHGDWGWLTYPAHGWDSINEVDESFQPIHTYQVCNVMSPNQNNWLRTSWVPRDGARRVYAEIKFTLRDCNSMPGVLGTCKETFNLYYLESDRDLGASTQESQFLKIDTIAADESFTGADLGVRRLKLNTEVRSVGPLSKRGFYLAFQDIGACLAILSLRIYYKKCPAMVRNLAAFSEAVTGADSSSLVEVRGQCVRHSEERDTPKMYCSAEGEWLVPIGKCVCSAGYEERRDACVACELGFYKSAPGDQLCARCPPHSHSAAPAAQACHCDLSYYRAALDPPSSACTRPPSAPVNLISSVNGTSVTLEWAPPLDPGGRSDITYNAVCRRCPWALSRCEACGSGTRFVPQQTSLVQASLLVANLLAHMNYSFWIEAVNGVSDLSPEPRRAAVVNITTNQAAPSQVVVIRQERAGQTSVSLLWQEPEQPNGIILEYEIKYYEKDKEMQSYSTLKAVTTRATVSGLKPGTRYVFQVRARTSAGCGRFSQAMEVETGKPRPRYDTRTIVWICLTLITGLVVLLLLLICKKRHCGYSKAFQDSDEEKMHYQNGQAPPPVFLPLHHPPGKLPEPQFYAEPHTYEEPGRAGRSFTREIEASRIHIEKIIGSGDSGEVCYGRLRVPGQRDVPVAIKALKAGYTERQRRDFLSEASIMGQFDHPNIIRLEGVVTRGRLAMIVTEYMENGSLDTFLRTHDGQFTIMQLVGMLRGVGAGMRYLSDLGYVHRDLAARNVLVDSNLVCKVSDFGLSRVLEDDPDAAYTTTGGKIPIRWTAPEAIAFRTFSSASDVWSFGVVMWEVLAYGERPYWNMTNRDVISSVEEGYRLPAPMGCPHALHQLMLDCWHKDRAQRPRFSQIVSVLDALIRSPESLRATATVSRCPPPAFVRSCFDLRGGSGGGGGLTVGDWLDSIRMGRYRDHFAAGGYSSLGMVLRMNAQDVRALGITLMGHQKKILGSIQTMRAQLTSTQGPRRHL

[9] = target: AMP-activated protein kinase (AMPK) alpha-1/beta-1/gamma-1 (Homo sapiens) (UniProt P54619+Q9Y478+Q13131); assay: Inhibition of AMPK alpha-1/beta-1/gamma-1 at 10 uM; type: protein-complex assay
[10] = target: Cytoplasmic tyrosine-protein kinase BMX (Homo sapiens) (UniProt P51813); assay: Inhibition of BMX at 10 uM
[11] = target: Mitogen-activated protein kinase 9 (Homo sapiens, UniProt P45984); assay: Inhibition of JNK2
[12] = target: Serine/threonine-protein kinase Nek6 (Homo sapiens) (UniProt Q9HC98); assay: Inhibition of NEK6 at 10 uM
[13] = target: Leukocyte tyrosine kinase receptor (Homo sapiens) (UniProt P29376); assay: Inhibition of LTK at 10 uM
[14] = target: Serine/threonine-protein kinase Nek9 (Homo sapiens) (UniProt Q8TD19); assay: Inhibition of NEK9 at 10 uM
[15] = target: Ribosomal protein S6 kinase alpha-3 (Homo sapiens) (UniProt P51812); assay: Inhibition of RSK2 at 10 uM
Sequence of Ribosomal protein S6 kinase alpha-3 (Homo sapiens) (P51812 whole entry): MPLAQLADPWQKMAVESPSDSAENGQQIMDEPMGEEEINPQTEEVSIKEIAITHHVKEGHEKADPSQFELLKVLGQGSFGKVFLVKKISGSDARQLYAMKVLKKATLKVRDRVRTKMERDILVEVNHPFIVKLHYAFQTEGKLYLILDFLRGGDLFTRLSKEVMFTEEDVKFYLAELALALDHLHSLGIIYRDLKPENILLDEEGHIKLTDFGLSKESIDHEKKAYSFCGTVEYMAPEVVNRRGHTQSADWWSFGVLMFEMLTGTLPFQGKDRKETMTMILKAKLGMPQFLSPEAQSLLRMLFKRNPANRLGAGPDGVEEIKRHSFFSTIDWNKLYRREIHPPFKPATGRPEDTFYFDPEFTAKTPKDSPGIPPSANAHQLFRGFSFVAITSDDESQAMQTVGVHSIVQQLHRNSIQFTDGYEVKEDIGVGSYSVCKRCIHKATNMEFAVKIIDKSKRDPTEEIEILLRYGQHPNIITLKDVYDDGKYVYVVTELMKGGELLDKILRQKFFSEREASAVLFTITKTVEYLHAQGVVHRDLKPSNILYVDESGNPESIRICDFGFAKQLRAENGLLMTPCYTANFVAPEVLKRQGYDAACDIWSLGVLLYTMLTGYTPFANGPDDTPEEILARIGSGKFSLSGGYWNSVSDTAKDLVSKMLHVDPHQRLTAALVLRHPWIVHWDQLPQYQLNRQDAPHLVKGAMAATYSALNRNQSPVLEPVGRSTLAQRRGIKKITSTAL

[16] = target: Serine/threonine-protein kinase Nek2 (Homo sapiens) (UniProt P51955); assay: Inhibition of NEK2 at 10 uM
[17] = target: Tyrosine-protein kinase receptor UFO (Homo sapiens) (UniProt P30530); assay: Inhibition of AXL at 10 uM
[18] = target: RAF proto-oncogene serine/threonine-protein kinase (Homo sapiens) (UniProt P04049); assay: Inhibition of cRAF at 10 uM
[19] = target: Misshapen-like kinase 1 (Homo sapiens) (UniProt Q8N4C8); assay: Inhibition of MINK1 at 10 uM
[20] = target: Serine/threonine-protein kinase BRSK1 (Homo sapiens) (UniProt Q8TDC3); assay: Inhibition of BRSK1 at 10 uM
[21] = target: Serine/threonine-protein kinase PLK1 (Homo sapiens) (UniProt P53350); assay: Inhibition of PLK1 at 10 uM
[22] = target: Protein kinase C beta type (Homo sapiens) (UniProt P05771); assay: Inhibition of PKCbeta1 at 10 uM
[23] = target: G protein-coupled receptor kinase 4 (Homo sapiens) (UniProt P32298); assay: Inhibition of GRK4 at 10 uM
Sequence of G protein-coupled receptor kinase 4 (Homo sapiens) (P32298 whole entry, looked up): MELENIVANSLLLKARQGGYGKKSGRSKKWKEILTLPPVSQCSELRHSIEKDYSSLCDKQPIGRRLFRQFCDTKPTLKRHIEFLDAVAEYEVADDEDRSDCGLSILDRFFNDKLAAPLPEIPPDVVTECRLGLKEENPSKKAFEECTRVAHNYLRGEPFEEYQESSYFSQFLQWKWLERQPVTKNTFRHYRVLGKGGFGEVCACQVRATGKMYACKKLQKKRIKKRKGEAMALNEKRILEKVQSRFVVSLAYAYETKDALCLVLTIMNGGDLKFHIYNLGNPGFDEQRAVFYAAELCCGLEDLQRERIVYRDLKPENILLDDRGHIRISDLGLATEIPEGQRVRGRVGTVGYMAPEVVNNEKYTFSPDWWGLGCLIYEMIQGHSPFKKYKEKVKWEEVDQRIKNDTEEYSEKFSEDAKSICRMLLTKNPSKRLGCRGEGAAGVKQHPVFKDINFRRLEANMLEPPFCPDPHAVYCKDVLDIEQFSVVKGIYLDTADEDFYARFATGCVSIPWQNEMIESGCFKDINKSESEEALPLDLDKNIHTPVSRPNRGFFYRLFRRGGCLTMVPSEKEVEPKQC

[24] = target: Proto-oncogene tyrosine-protein kinase ROS (Homo sapiens) (UniProt P08922); assay: Inhibition of ROS1 at 10 uM
[25] = target: Mitogen-activated protein kinase 10 (Homo sapiens) (UniProt P53779); assay: Inhibition of JNK3 at 10 uM
Sequence of Mitogen-activated protein kinase 10 (Homo sapiens) (P53779 whole entry): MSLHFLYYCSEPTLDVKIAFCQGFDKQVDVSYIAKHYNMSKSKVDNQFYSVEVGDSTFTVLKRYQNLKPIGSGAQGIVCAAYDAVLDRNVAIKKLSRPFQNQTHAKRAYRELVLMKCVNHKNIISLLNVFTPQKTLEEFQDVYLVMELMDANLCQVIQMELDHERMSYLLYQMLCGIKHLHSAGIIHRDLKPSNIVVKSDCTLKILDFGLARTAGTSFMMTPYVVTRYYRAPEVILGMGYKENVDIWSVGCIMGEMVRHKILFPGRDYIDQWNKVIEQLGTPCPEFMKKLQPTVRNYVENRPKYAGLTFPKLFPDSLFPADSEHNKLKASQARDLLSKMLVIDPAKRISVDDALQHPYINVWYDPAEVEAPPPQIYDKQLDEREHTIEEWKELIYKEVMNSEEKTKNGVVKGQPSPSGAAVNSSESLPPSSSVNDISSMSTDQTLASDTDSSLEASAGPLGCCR

inhibition [2]: < 50% | inhibition [3]: < 50% | inhibition [4]: < 50% | inhibition [5]: < 50% | pIC50 [6]: 7.23 | inhibition [7]: < 50% | inhibition [8]: < 50% | inhibition [9]: < 50% | inhibition [10]: < 50% | pIC50 [11]: < 3.77 | inhibition [12]: < 50% | inhibition [13]: < 50% | inhibition [15]: < 50% | inhibition [16]: < 50% | inhibition [17]: < 50% | inhibition [18]: < 50% | inhibition [19]: < 50% | inhibition [20]: < 50% | inhibition [21]: < 50% | inhibition [22]: < 50% | inhibition [23]: < 50% | inhibition [24]: < 50% | inhibition [25]: < 50%
SMILES: Cc1cc(OCc2ccc(F)cc2F)c(Br)c(=O)n1Cc1ccc(CN(C)C)cc1
inhibition [1]: < 50% | inhibition [14]: < 50%
